Where two headings read alike, the source gives them in different places.
Key:
[1] = test system: A549 cells; type: cell-based, human; conditions: 24 h
Experimental: (§1) The MTT cell proliferation assay was used to investigate the anticancer activity and cytotoxicity of MAPs against cancer cell lines (HeLa, A549, SGC-7901, and B16) and normal cells (3T3-L1), respectively. Cells (5 × 10^3) were seeded in 96-well plates and incubated overnight. The peptide samples were then added to cells with final concentrations ranging from 1 μM to 125 μM. After 24 h, 20 μL of 5 mg/mL MTT solution in PBS was added to the cells and treated for 4 h at 37 °C. The formazan crystals were dissolved by 150 μL of dimethyl sulfoxide (DMSO). Finally, the absorbance was determined at 492 nm. The results were expressed as IC50, representing the concentration at which cell viability was reduced by 50%. All assays were repeated in triplicate.

[2] = test system: HeLa cells; type: cell-based, human; conditions: 24 h
Experimental: as §1

[3] = test system: SGC7901 cells; type: cell-based, human; conditions: 24 h
Experimental: as §1

[4] = test system: PC/PG (7:3 w/w) LUVs; assay: Single-molecule force spectroscopy (AFM); type: binding; conditions: RMS ± SD; N-terminal Cys peptide on AFM tip via PEG linker; prokaryotic model membrane
Description: (§2) Based on the above results, five selected peptides of V13L, A12L/A20L, V13K, V13E, and L6A/L17A, with different hydrophobicity and charges were used to examine the interaction probabilities and forces between peptides and membranes, both on the lipid model membranes and on the biological membranes by SMFS based on AFM, respectively. A cysteine residue was covalently introduced to the N-terminus of peptides and provided a free sulfhydryl group to modify the tips of the AFM. A PEG linker was used since each heterobifunctional PEG–NHS linker (approximately 20 nm) can only covalently connect with a single peptide molecule, which guarantees a single-molecule interaction between MAPs and biological membranes in real time[19]. If an AFM tip was functionalized with two or more peptides, where several peaks were recorded. In the reports, data with two peaks were not collected and calculated. For one force–distance cycle, one peptide-functionalized AFM tip approached the model and biological membranes right on the top, and the subsequent tip was withdrawn from the cell membranes to retrace the process. […] In addition, blocking experiment was used to test the specificity of these force events. As the electrostatic attraction is one important reason for peptides approaching model membranes and biological membranes, the Tris-HCl buffer including plenty amino groups[20] was injected into the working chamber and inhibits the interactions between MAPs and model membranes/biological membranes. […] The unbinding forces of V13L against different model membranes and biological membranes with the loading rate of 1 × 10^5 pN s^−1 are shown in Fig. 3c,f–h,j–l.
(§3) In accordance with previously described methods, LUVs were prepared with PC/PG (7:3 w/w), PC/Chol (8:1 w/w), and PC/SM/PE/PS/Chol (4.35:4.35:1:0.3:1 w/w) to mimic prokaryotic cell, […], membranes, respectively. Lipids using the freeze-thaw method as described previously, followed by extrusion through […] double-stacked nuclepore filters using an Mini-Extruder (Avanti Polar Lipids, Inc.)[11][27].
(§4) The AFM tip was first washed with concentrated sulfuric acid and hydrogen peroxide (3:1, v:v). The tip was dried using ozone (O3) for 15 min and dried overnight in a dryer. The tip was then modified with APTES under an argon atmosphere and the peptide connected with a PEG–NHS linker. Finally, the AFM tip linked with the peptide was washed three times in PBS and kept at 4 °C. A 500-μL LUV suspension was deposited on Lys coated glass and the LUVs were absorbed on the surface for 1 h at 65 °C [9][29]. A. laidlawii was deposited on poly-L-lysine coated glass and absorbed for 1 h at 37 °C [30]. The 3T3-L1 and HeLa cells were cultured on glass slides in Dulbecco’s modified Eagle’s medium (DMEM). Before performing force spectroscopy experiments, the cells were washed with fresh DMEM three times to remove the cell metabolites. Isolation of chicken erythrocytes was carried out at room temperature. Then the erythrocytes were washed three times in 2 mL PBS buffer by centrifuge (1,000 rpm) and resuspended in PBS buffer. 200 μL erythrocyte suspension were deposited onto poly-L-lysine coated glass for 20 min[10]. The force measurements of MAPs with LUVs mimicking membranes and living cells were performed using the AFM5500 (Agilent Technologies, Chandler, AZ, USA)[19].

[5] = test system: PC/SM/PE/PS/Chol (4.35:4.35:1:0.3:1 w/w) LUVs; assay: Single-molecule force spectroscopy (AFM); type: binding; conditions: RMS ± SD; N-terminal Cys peptide on AFM tip via PEG linker; cancer cell model membrane
Description: as §2, §3, §4

[6] = test system: PC/Chol (8:1 w/w) LUVs; assay: Single-molecule force spectroscopy (AFM); type: binding; conditions: RMS ± SD; N-terminal Cys peptide on AFM tip via PEG linker; normal eukaryotic model membrane
Description: as §2
Lipids using the freeze-thaw method as described previously, followed by extrusion through […] double-stacked nuclepore filters using an Mini-Extruder (Avanti Polar Lipids, Inc.)[11][27].
as §4, with “Then the erythrocytes were washed three times in 2 mL PBS buffer by centrifuge (1,000 rpm) and resuspended in PBS buffer. 200 μL erythrocyte suspension were deposited onto poly-L-lysine coated glass for 20 min[10]. The force measurements of MAPs with LUVs mimicking membranes and living cells were performed using the AFM5500 (Agilent Technologies, Chandler, AZ, USA)[19].” left out

[7] = test system: A. laidlawii cells; assay: Single-molecule force spectroscopy (AFM); type: binding, Acholeplasma laidlawii; conditions: RMS ± SD; N-terminal Cys peptide on AFM tip via PEG linker
Description: as §2
as §4, with “The force measurements of MAPs with LUVs mimicking membranes and living cells were performed using the AFM5500 (Agilent Technologies, Chandler, AZ, USA)[19].” left out

[8] = test system: 3T3-L1 cells; assay: Single-molecule force spectroscopy (AFM); type: binding, mouse; conditions: RMS ± SD; N-terminal Cys peptide on AFM tip via PEG linker
Description: as §2
as §4, with “The force measurements of MAPs with LUVs mimicking membranes and living cells were performed using the AFM5500 (Agilent Technologies, Chandler, AZ, USA)[19].” left out

[9] = test system: HeLa cells; assay: Single-molecule force spectroscopy (AFM); type: binding, human; conditions: RMS ± SD; N-terminal Cys peptide on AFM tip via PEG linker
Description: as §2
as §4, with “The force measurements of MAPs with LUVs mimicking membranes and living cells were performed using the AFM5500 (Agilent Technologies, Chandler, AZ, USA)[19].” left out

[10] = Circular dichroism (CD) analysis; type: physicochemical; conditions: for α-Helix (%) 50% TFE / α-Helix (%) Benign: relative to molar ellipticity of A12L/A20L in 50% TFE; for [θ]222 Benign / [θ]222 50% TFE: CD, 25 °C; for [θ]222 Benign: benign buffer pH 7.0, 100 mM KCl, 50 mM KH2PO4/K2HPO4; for [θ]222 50% TFE: benign buffer:TFE 1:1 vol/vol; for α-Helix (%) Benign: benign buffer
Experimental: The secondary structures of the peptides were determined using a Jasco J-810 CD spectrometer (Jasco, Easton, MD) at 25 °C [12]. The benign buffer (pH 7.0, 100 mM KCl, 50 mM KH2PO4/K2HPO4) was used to simulate the hydrophilic environment and 50% 2,2,2-trifluoroethanol (TFE) (benign buffer: TFE = 1: 1, vol/vol) was used to simulate the hydrophobic environment. The mean residue molar ellipticities at 222 nm, [θ]222 (degree·cm^2·dmol^−1), were used to calculate the relative helical contents of MAPs[24].
CD spectroscopy illustrated the secondary structure of peptide analogs under benign environment and 50% TFE to mimic the hydrophobic conditions of cell membranes. CD results are shown in Supplementary Table S2 and Fig. S1. […] The helical content (%) of peptides in two groups relative to the molar ellipticity value of the peptide A12L/A20L in 50% TFE. In addition, except the peptide of V13E, the relative helicity of the peptides are in the same order of V13L>V13A>V13S>V13K and A12L/A20L>A20L>L6A>L6A/L17A in the benign and hydrophobic environments and also in the same order with the peptide hydrophobicity.

[11] = MTT, 1-125 μM, triplicate, read-out: IC50 A549
[12] = MTT, 1-125 μM, triplicate, read-out: IC50 HeLa
[13] = MTT, 1-125 μM, triplicate, read-out: IC50 SGC7901

Ac-KWKSFLKTFKSAEKTVLHTALKAISS-NH2 [Peptide V13E]
IC50 [1]: 110 µM
IC50 [2]: 73.7 µM
IC50 [3]: 92 µM
Unbinding force PC/PG [4]: 111 ± 37 pN
Unbinding force PC/SM/PE/PS/Chol [5]: 92 ± 34 pN
Unbinding force PC/Chol [6]: 89 ± 34 pN
Unbinding force A. laidlawii [7]: 55 ± 12 pN
Unbinding force 3T3-L1 [8]: 51 ± 11 pN
Unbinding force HeLa [9]: 36 ± 14 pN
α-Helix (%) 50% TFE [10]: 43.13%
[θ]222 Benign [10]: −3876.86 degree·cm^2·dmol^−1
[θ]222 50% TFE [10]: −18689.59 degree·cm^2·dmol^−1
α-Helix (%) Benign [10]: 8.95%

Ac-KWKSFAKTFKSAKKTVAHTALKAISS-NH2 [L6A/L17A]
IC50 [1, 11]: > 125 µM
IC50 [2, 12]: > 125 µM
IC50 [3, 13]: > 125 µM
Unbinding force PC/PG [4]: 132 ± 41 pN
Unbinding force PC/SM/PE/PS/Chol [5]: 130 ± 36 pN
Unbinding force PC/Chol [6]: 100 ± 34 pN
Unbinding force A. laidlawii [7]: 41 ± 15 pN
Unbinding force 3T3-L1 [8]: 39 ± 12 pN
Unbinding force HeLa [9]: 39 ± 11 pN
α-Helix (%) 50% TFE [10]: 65.58%
[θ]222 Benign [10]: −3589.82 degree·cm^2·dmol^−1
[θ]222 50% TFE [10]: −28421.80 degree·cm^2·dmol^−1
α-Helix (%) Benign [10]: 8.28%

CC[C@H](C)[C@H](NC(=O)[C@H](C)NC(=O)[C@H](CCCCN)NC(=O)[C@H](CC(C)C)NC(=O)[C@H](C)NC(=O)[C@@H](NC(=O)[C@H](Cc1cnc[nH]1)NC(=O)[C@H](CC(C)C)NC(=O)[C@@H](NC(=O)[C@@H](NC(=O)[C@H](CCCCN)NC(=O)[C@H](CCCCN)NC(=O)[C@H](C)NC(=O)[C@H](CO)NC(=O)[C@H](CCCCN)NC(=O)[C@H](Cc1ccccc1)NC(=O)[C@@H](NC(=O)[C@H](CCCCN)NC(=O)[C@H](CC(C)C)NC(=O)[C@H](Cc1ccccc1)NC(=O)[C@H](CO)NC(=O)[C@H](CCCCN)NC(=O)[C@H](Cc1c[nH]c2ccccc12)NC(=O)[C@H](CCCCN)NC(C)=O)[C@@H](C)O)[C@@H](C)O)C(C)C)[C@@H](C)O)C(=O)N[C@@H](CO)C(=O)N[C@@H](CO)C(N)=O [Peptide V13K]
IC50 [1, 11]: 24.4 µM
IC50 [2, 12]: 13.1 µM
IC50 [3, 13]: 18.9 µM
Unbinding force PC/PG [4]: 135 ± 36 pN
Unbinding force PC/SM/PE/PS/Chol [5]: 128 ± 51 pN
Unbinding force PC/Chol [6]: 101 ± 37 pN
Unbinding force A. laidlawii [7]: 51 ± 18 pN
Unbinding force 3T3-L1 [8]: 51 ± 15 pN
Unbinding force HeLa [9]: 52 ± 20 pN
α-Helix (%) 50% TFE [10]: 69.85%
[θ]222 Benign [10]: −4236.54 degree·cm^2·dmol^−1
[θ]222 50% TFE [10]: −30268.40 degree·cm^2·dmol^−1
α-Helix (%) Benign [10]: 9.77%

Ac-KWKSFLKTFKSALKTVLHTALKAISS-NH2 [Peptide V13L]
IC50 [1]: 2.8 µM
IC50 [2]: 4.86 µM
IC50 [3]: 2 µM
Unbinding force PC/PG [4]: 127 ± 34 pN
Unbinding force PC/SM/PE/PS/Chol [5]: 124 ± 40 pN
Unbinding force PC/Chol [6]: 98 ± 30 pN
Unbinding force A. laidlawii [7]: 27 ± 9 pN
Unbinding force 3T3-L1 [8]: 30 ± 11 pN
Unbinding force HeLa [9]: 31 ± 10 pN
α-Helix (%) 50% TFE [10]: 90.73%
[θ]222 Benign [10]: −10502.62 degree·cm^2·dmol^−1
[θ]222 50% TFE [10]: −39315.30 degree·cm^2·dmol^−1
α-Helix (%) Benign [10]: 24.24%

Source: publication PMC4929710, “Specificity and mechanism of action of alpha-helical membrane-active peptides interacting with model and biological membranes by single-molecule force spectroscopy” (Scientific Reports, 2016)
